Test results: patent US6337333B1, “Method of treating autoimmune disease with fludarabine-5′-monophosphate” (priority 1992, dated 2002)

Tests used:
[1] = system: T lymphocytes; assay: T lymphocyte proliferative response to mitogen after 18 hr drug pretreatment (3H-thymidine); assay type: cell-based, human; details: 18 hr pretreatment; for % Suppression: T lymphocytes
Protocol: (§1) In FIG. 1, freshly isolated PBMC were enriched for T and B lymphocytes using Nylon Wool (see Materials and Methods, Example A). The enriched lymphocyte subpopulations were then incubated for 18 hrs at 37° C. with various concentrations of drug. At the end of the pretreatment period, the cell samples were washed, adjusted to 2×10^5 viable cells/ml, and cultured at 1×10^4/well in flat (B cells) or round (T cells) bottomed 96 well microtiter plates in […]. The T cells were incubated for 3 days with PHA-P ([…]) or Con A (5 μg/ml) and the B cells were cultured for 6 days with either PWM (2 μg/ml) or SAC ({fraction (1/60,000)}). 1 μCi of ^3H-thymidine was added per well during the last 18 hr of culture. The wells were then harvested onto glass fiber filters, and counted in 7 ml of Cytoscint (ICN) on the LKB 1219 Rackbeta scintillation counter. The results are expressed as the mean cpm of triplicate wells.
(§2) Peripheral blood mononuclear cells obtained from normal donors as packed leukocyte preparations were enriched for T and B lymphocytes and pretreated with drug for 18 hrs prior to mitogen stimulation.
(§3) Peripheral blood mononuclear cells enriched for either T or B lymphocytes were incubated for 18 hrs in complete S-10 medium at 37° C. in 12×75 mm culture tubes at 5×10^5 cells/ml. The cells were then washed in S-10 and cultured in triplicate for either 3 (T lymphocytes) or 6 (B lymphocytes) days at 2.5×10^4/well in round bottom 96-well microtiter plates in S-10 medium at 37° C. and a 5% CO2 humidified atmosphere. The wells were pulsed with 1 μCi 3H-thymidine for the last 18 hr of culture, harvested onto glass fiber filters, and counted with 7 ml Cytoscint with a LKB Rackbeta scintillation counter. The results are reported as “percent Suppression”:
(§4) % Suppression={1−(mean cpm exp./mean cpm stim control)}×100

[2] = system: B lymphocytes; assay: B lymphocyte proliferative response to mitogen after 18 hr drug pretreatment (3H-thymidine); assay type: cell-based, human; details: 18 hr pretreatment; for % Suppression: B lymphocytes
Protocol: as §1, §2, §3, §4

[3] = system: human T-lymphoblastoid cell lines; details: cited from earlier work

Nc1nc(F)nc2c1ncn2[C@@H]1O[C@H](COP(=O)(O)O)[C@@H](O)[C@@H]1O [FLP, fludarabine-5′-monophosphate]
suppression of T lymphocyte's ability to respond to mitogen ([1]; FIG. 1A): suppress
% Suppression ([1]; CON A (5 μg/ml), BC5, 5 μg/ml of drug): 29%
% Suppression ([1]; CON A (5 μg/ml), BC6, 1 μg/ml of drug): 4%
% Suppression ([1]; CON A (5 μg/ml), BC6, 5 μg/ml of drug): 29%
% Suppression ([1]; CON A (5 μg/ml), BC7, 1 μg/ml of drug): 16%
% Suppression ([1]; CON A (5 μg/ml), BC7, 5 μg/ml of drug): 40%
% Suppression ([1]; CON A (5 μg/ml), leukocyte preparation BC5, 1 μg/ml of drug): 6%
% Suppression ([1]; PHA-P (5 μg/ml), BC5, 1 μg/ml of drug): 24%
% Suppression ([1]; PHA-P (5 μg/ml), BC5, 5 μg/ml of drug): 32%
% Suppression ([1]; PHA-P (5 μg/ml), BC6, 1 μg/ml of drug): 0%
% Suppression ([1]; PHA-P (5 μg/ml), BC6, 5 μg/ml of drug): 15%
% Suppression ([1]; PHA-P (5 μg/ml), BC7, 1 μg/ml of drug): 25%
% Suppression ([1]; PHA-P (5 μg/ml), BC7, 5 μg/ml of drug): 50%
suppression of B lymphocyte's ability to respond to mitogen ([2]; FIG. 1B): suppress
% Suppression ([2]; PWM (1 μg/ml), BC5, 1 μg/ml of drug): 59%
% Suppression ([2]; PWM (1 μg/ml), BC5, 5 μg/ml of drug): 47%
% Suppression ([2]; PWM (1 μg/ml), BC6, 1 μg/ml of drug): 11%
% Suppression ([2]; PWM (1 μg/ml), BC6, 5 μg/ml of drug): 40%
% Suppression ([2]; PWM (1 μg/ml), BC7, 1 μg/ml of drug): 16%
% Suppression ([2]; PWM (1 μg/ml), BC7, 5 μg/ml of drug): 65%
% Suppression ([2]; SAC I (1/60,000), BC5, 1 μg/ml of drug): 14%
% Suppression ([2]; SAC I (1/60,000), BC5, 5 μg/ml of drug): 5%
% Suppression ([2]; SAC I (1/60,000), BC6, 1 μg/ml of drug): 0%
% Suppression ([2]; SAC I (1/60,000), BC6, 5 μg/ml of drug): 49%
% Suppression ([2]; SAC I (1/60,000), BC7, 1 μg/ml of drug): 55%
% Suppression ([2]; SAC I (1/60,000), BC7, 5 μg/ml of drug): 73%

Nc1nc(Cl)nc2c1ncn2[C@H]1C[C@H](O)[C@@H](CO)O1 [2CDA, 2-chlorodeoxyadenosine]
levels giving growth inhibition [3]: nanomolar levels
